According to US11498899B2, “Nitrone herbicides” (FMC Corporation, priority 2016, dated 2022):

Legend:
[1] = test system: barnyardgrass (Echinochloa crus-galli); assay: Test A preemergence, visual injury rating 0-100 (0 no effect, 100 complete control); type: in vivo
[2] = test system: ragweed (common ragweed, Ambrosia elatior); assay: Test A preemergence, visual injury rating 0-100; type: in vivo
[3] = test system: pigweed (Amaranthus retroflexus); assay: Test A preemergence, visual injury rating 0-100; type: in vivo
[4] = test system: foxtail, giant (giant foxtail, Setaria faberii); assay: Test A preemergence, visual injury rating 0-100; type: in vivo
[5] = test system: ryegrass, Italian (Italian ryegrass, Lolium multiflorum); assay: Test A preemergence, visual injury rating 0-100; type: in vivo
[6] = test system: kochia (Kochia scoparia); assay: Test A preemergence, visual injury rating 0-100; type: in vivo
[7] = test system: ragweed (common ragweed, Ambrosia elatior); assay: Test A postemergence, visual injury rating 0-100; type: in vivo; conditions: 0 to 100 scale
[8] = test system: galium (catchweed bedstraw, Galium aparine); assay: Test A postemergence, visual injury rating 0-100; type: in vivo; conditions: 0 to 100 scale
[9] = test system: wheat (Triticum aestivum); assay: Test A postemergence, visual injury rating 0-100; type: in vivo; conditions: 0 to 100 scale
[10] = test system: pigweed (Amaranthus retroflexus); assay: Test A postemergence, visual injury rating 0-100; type: in vivo; conditions: 0 to 100 scale
[11] = test system: foxtail, giant (giant foxtail, Setaria faberii); assay: Test A postemergence, visual injury rating 0-100; type: in vivo; conditions: 0 to 100 scale
[12] = test system: corn (Zea mays); assay: Test A postemergence, visual injury rating 0-100; type: in vivo; conditions: 0 to 100 scale
[13] = test system: ryegrass, Italian (Italian ryegrass, Lolium multiflorum); assay: Test A postemergence, visual injury rating 0-100; type: in vivo; conditions: 0 to 100 scale
[14] = test system: kochia (Kochia scoparia); assay: Test A postemergence, visual injury rating 0-100; type: in vivo; conditions: 0 to 100 scale
[15] = test system: blackgrass (Alopecurus myosuroides); assay: Test A postemergence, visual injury rating 0-100; type: in vivo; conditions: 0 to 100 scale
[16] = test system: barnyardgrass (Echinochloa crus-galli); assay: Test A postemergence, visual injury rating 0-100; type: in vivo; conditions: 0 to 100 scale
[17] = test system: rice (Oryza sativa); assay: Test B flooded paddy test, visual rating 0-100 (0 no effect, 100 complete control); conditions: Flood, 250 g ai/ha, applied to paddy water, rated after 13 to 15 days
[18] = test system: ducksalad (Heteranthera limosa); assay: Test B flooded paddy test, visual rating 0-100; conditions: Flood, 250 g ai/ha, applied to paddy water, rated after 13 to 15 days
[19] = test system: barnyardgrass (Echinochloa crus-galli); assay: Test B flooded paddy test, visual rating 0-100; conditions: Flood, 250 g ai/ha, applied to paddy water, rated after 13 to 15 days
[20] = 31 g ai/ha, 0 to 100 scale (0 no effect, 100 complete control), approx. 10 days

Compound | Barnyardgrass plant response rating (0 to 100 scale) ([1]; 125 g ai/ha) | Ragweed plant response rating (0 to 100 scale) ([2]; 125 g ai/ha) | Pigweed plant response rating (0 to 100 scale) ([3]; 125 g ai/ha) | Foxtail, Giant plant response rating (0 to 100 scale) ([4]; 125 g ai/ha) | Ryegrass, Italian plant response rating (0 to 100 scale) ([5]; 125 g ai/ha) | Kochia plant response rating (0 to 100 scale) ([6]; 125 g ai/ha) | Ragweed plant response rating ([7]; 125 g ai/ha) | Galium plant response rating ([8]; 125 g ai/ha) | Wheat plant response rating ([9]; 125 g ai/ha) | Pigweed plant response rating ([10]; 125 g ai/ha) | Foxtail, Giant plant response rating ([11]; 125 g ai/ha) | Corn plant response rating ([12]; 125 g ai/ha) | Ryegrass, Italian plant response rating ([13]; 125 g ai/ha) | Kochia plant response rating ([14]; 125 g ai/ha) | Blackgrass plant response rating ([15]; 125 g ai/ha) | Barnyardgrass plant response rating ([16]; 125 g ai/ha) | Rice plant response rating (0 to 100 scale) [17] | Ducksalad plant response rating (0 to 100 scale) [18] | Barnyardgrass plant response rating (0 to 100 scale) [19] | other results
CC1=[N+]([O-])C(C(=O)Nc2cccc(F)c2F)C(c2ccc(F)c(Oc3ncc(F)cn3)c2)C1 (racemic) [Compound 52] | 90 | 0 | 0 | 80 | 80 | 0 | 0 | 20 | 10 | 0 | 0 | 0 | 20 | 0 | 30 | 30 | 0 | 0 | 0 | Barnyardgrass plant response rating (0 to 100 scale) ([1]; 500 g ai/ha): 100; Ragweed plant response rating (0 to 100 scale) ([2]; 500 g ai/ha): 60; Pigweed plant response rating (0 to 100 scale) ([3]; 500 g ai/ha): 70; Foxtail, Giant plant response rating (0 to 100 scale) ([4]; 500 g ai/ha): 100; Ryegrass, Italian plant response rating (0 to 100 scale) ([5]; 500 g ai/ha): 90; Kochia plant response rating (0 to 100 scale) ([6]; 500 g ai/ha): 20; Ragweed plant response rating ([7]; 500 g ai/ha): 30; Galium plant response rating ([8]; 500 g ai/ha): 70; Wheat plant response rating ([9]; 500 g ai/ha): 70; Pigweed plant response rating ([10]; 500 g ai/ha): 0; Foxtail, Giant plant response rating ([11]; 500 g ai/ha): 90; Corn plant response rating ([12]; 500 g ai/ha): 70; Ryegrass, Italian plant response rating ([13]; 500 g ai/ha): 60; Kochia plant response rating ([14]; 500 g ai/ha): 20; Blackgrass plant response rating ([15]; 500 g ai/ha): 70; Barnyardgrass plant response rating ([16]; 500 g ai/ha): 70
CC1=[N+]([O-])C(C(=O)Nc2cccc(F)c2F)C(c2ccc(F)cc2)C1 (racemic) [Compound 9] | 90 | 90 | 30 | 90 | 0 | 0 | 0 | 30 | 0 | 20 | 50 | 0 | 0 | 0 | 0 | 40 | 0 | 100 | 85 | Barnyardgrass plant response rating [1, 20]: 30; Ragweed plant response rating [2, 20]: 0; Pigweed plant response rating [3, 20]: 0; Foxtail, Giant plant response rating [4, 20]: 70; Ryegrass, Italian plant response rating [5, 20]: 0; Kochia plant response rating [6, 20]: 0; Ragweed plant response rating ([7]; 31 g ai/ha): 0; Galium plant response rating ([8]; 31 g ai/ha): 0; Wheat plant response rating ([9]; 31 g ai/ha): 0; Pigweed plant response rating ([10]; 31 g ai/ha): 0; Foxtail, Giant plant response rating ([11]; 31 g ai/ha): 20; Corn plant response rating ([12]; 31 g ai/ha): 0; Ryegrass, Italian plant response rating ([13]; 31 g ai/ha): 0; Kochia plant response rating ([14]; 31 g ai/ha): 0; Blackgrass plant response rating ([15]; 31 g ai/ha): 0; Barnyardgrass plant response rating ([16]; 31 g ai/ha): 10
